Measurements from patent publication US10508085B2, “Compounds and methods for IDO and TDO modulation, and indications therefor” (Plexxikon Inc., priority 2016, dated 2019).

Key:
[1] = biological target: T1, human IDO (IDO1-expressing HEK293 cells) (Homo sapiens, UniProt P14902); assay: Cell based kynurenine assay, IDO1-expressing HEK293 cell clones; settings: IDO1-expressing HEK293 cells, 24 hours incubation; geometric mean; read-out: HEK293 IDO1 Kynurenine GMean IC50 (μM) (Cellular Assay)
T1 construct: expressed in transfected cells
T1 sequence (P14902 whole entry): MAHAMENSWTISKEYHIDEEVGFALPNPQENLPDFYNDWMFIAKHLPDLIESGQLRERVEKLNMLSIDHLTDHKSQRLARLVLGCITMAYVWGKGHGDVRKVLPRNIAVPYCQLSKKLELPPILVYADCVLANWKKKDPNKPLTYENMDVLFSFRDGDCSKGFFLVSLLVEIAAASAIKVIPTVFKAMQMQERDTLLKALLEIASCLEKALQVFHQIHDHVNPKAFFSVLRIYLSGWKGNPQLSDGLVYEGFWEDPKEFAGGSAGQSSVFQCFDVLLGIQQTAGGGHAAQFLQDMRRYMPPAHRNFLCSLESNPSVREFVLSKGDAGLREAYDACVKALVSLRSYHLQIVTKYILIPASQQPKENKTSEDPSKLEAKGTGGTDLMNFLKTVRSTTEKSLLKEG
Outline: (§1)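 Cellular IDO1 and TDO activity is followed as kynurenine released by stably transfected HEK293 clones over 24 h with test compound. Controls are DMSO-treated cells and media alone.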

[2] = biological target: T2, Human Indoleamine 2,3-dioxygenase (IDO) (Homo sapiens, UniProt P14902); assay: Human IDO enzymatic assay (kynurenine level); assay type: biochemical; settings: 6 nM IDO, 10 μM L-Trp; geometric mean; read-out: IDO1 GMean: IC50 (μM) (Biochemical Assay)
T2 construct: His tag (N); made in house; host or cells: E. coli
T2 sequence (P14902 whole entry): as above
Outline: (§2)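 Compound is mixed with His-tagged enzyme from E. coli in pH 6.5 phosphate buffer containing ascorbate, methylene blue and catalase, at room temperature. IDO uses 6 nM enzyme and 10 μM Trp for 20 min. TDO uses 1 nM enzyme and 350 μM Trp for 70 min. TCA stops the reaction, and IC50 is derived from kynurenine levels.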

[3] = biological target: T3, human TDO (TDO-expressing HEK293 cells) (Homo sapiens, UniProt P48775); assay: Cell based kynurenine assay, TDO-expressing HEK293 cell clones; settings: TDO-expressing HEK293 cells, 24 hours incubation; geometric mean; read-out: HEK293 TDO Kynurenine GMean IC50 (μM) (Cellular Assay)
T3 construct: expressed in transfected cells
T3 sequence (P48775 whole entry): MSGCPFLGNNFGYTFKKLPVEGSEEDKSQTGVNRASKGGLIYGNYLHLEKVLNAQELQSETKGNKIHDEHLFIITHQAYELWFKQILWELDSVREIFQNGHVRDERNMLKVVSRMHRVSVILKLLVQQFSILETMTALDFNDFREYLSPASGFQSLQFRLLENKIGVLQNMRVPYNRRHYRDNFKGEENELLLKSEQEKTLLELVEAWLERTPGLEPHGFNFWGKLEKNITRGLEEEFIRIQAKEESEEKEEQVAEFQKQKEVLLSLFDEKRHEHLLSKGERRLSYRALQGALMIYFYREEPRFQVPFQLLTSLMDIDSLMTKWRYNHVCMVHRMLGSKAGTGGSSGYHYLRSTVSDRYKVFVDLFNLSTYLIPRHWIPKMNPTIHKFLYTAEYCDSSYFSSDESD
Outline: as §1

[4] = biological target: T4, Human Tryptophan 2,3-dioxygenase (TDO) (Homo sapiens, UniProt P48775); assay: Human TDO enzymatic assay (kynurenine level); assay type: biochemical; settings: 1 nM TDO, 350 μM L-Trp; geometric mean; read-out: TDO GMean: IC50 (μM) (Biochemical Assay)
T4 construct: His tag (N); made in house; host or cells: E. coli
T4 sequence (P48775 whole entry): as above
Outline: as §2

| IC50 [1] [µM] | IC50 [2] [µM] | IC50 [3] [µM] | IC50 [4] [µM] | SMILES |
| --- | --- | --- | --- | --- |
| 0.0001 to 10 | 0.0001 to 10 | 0.0001 to 10 | 0.0001 to 10 | CC1(C)[C@H]2CCC3(CC(O)(c4cc(Cl)cc5cn[nH]c45)C3)[C@@H]1C2 (some centres unmarked) [Compound P-0190] |
| 0.0001 to 10 | 0.0001 to 10 | 0.0001 to 10 | 0.0001 to 10 | CC(C)(C1CCOCC1)C(O)c1cc(Cl)cc2cn[nH]c12 (centres unmarked) [Compound P-0191, 1-(5-chloro-1H-indazol-7-yl)-2-methyl-2-(tetrahydro-2H-pyran-4-yl)propan-1-ol] |
| 0.0001 to 10 | 0.0001 to 10 | 0.0001 to 10 | 0.0001 to 10 | OC(c1cc(Cl)cc2cn[nH]c12)C(F)(F)C1CCOCC1 (centres unmarked) [Compound P-0192, 1-(5-chloro-1H-indazol-7-yl)-2,2-difluoro-2-(tetrahydro-2H-pyran-4-yl)ethan-1-ol] |
| 0.0001 to 10 | 0.0001 to 10 | 0.0001 to 10 | 0.0001 to 10 | CC1(C)C2CCC(C2)[C@]12C[C@@](O)(c1cc(Cl)cc3cn[nH]c31)C2 (some centres unmarked) [Compound P-0193, (2s,3′s)-3′-(5-chloro-1H-indazol-7-yl)-3,3-dimethylspiro[bicyclo[2.2.1]heptane-2,1′-cyclobutan]-3′-ol] |
| 0.0001 to 10 | 0.0001 to 10 | 0.0001 to 10 | 0.0001 to 10 | OC(c1cc(Cl)cc2cn[nH]c12)C1(C(F)F)CCC1 (centres unmarked) [Compound P-0194, (5-chloro-1H-indazol-7-yl)(1-(difluoromethyl)cyclobutyl)methanol] |
| 0.0001 to 10 | 0.0001 to 10 | 0.0001 to 10 | 0.0001 to 10 | OC(c1cc(Cl)cc2cn[nH]c12)C1CC2(CCC2)C1 (centres unmarked) [Compound P-0195, (5-chloro-1H-indazol-7-yl)(spiro[3.3]heptan-2-yl)methanol] |
| 0.0001 to 10 | 0.0001 to 10 | 0.0001 to 10 | 0.0001 to 10 | CC1(C)CC(C(O)c2cc(Cl)cc3cn[nH]c23)C1 (centres unmarked) [Compound P-0196, (5-chloro-1H-indazol-7-yl)(3,3-dimethylcyclobutyl)methanol] |
| 0.0001 to 10 | 0.0001 to 10 | 0.0001 to 10 | 0.0001 to 10 | OCC1CCC(C(O)c2cc(Cl)cc3cn[nH]c23)CC1 (centres unmarked) [Compound P-0197, (5-chloro-1H-indazol-7-yl)(4-(hydroxymethyl)cyclohexyl)methanol] |
| 0.0001 to 10 | 0.0001 to 10 | 0.0001 to 10 | 0.0001 to 10 | CC(C)(C1CCN(S(C)(=O)=O)CC1)C(O)c1cc(Cl)cc2cn[nH]c12 (centres unmarked) [Compound P-0198, 1-(5-chloro-1H-indazol-7-yl)-2-methyl-2-(1-(methylsulfonyl)piperidin-4-yl)propan-1-ol] |
| 0.0001 to 10 | 0.0001 to 10 | 0.0001 to 10 | 0.0001 to 10 | CC(C)(C1CCCC1)C(O)c1cc(Cl)cc2cn[nH]c12 (centres unmarked) [Compound P-0199, 1-(5-chloro-1H-indazol-7-yl)-2-cyclopentyl-2-methylpropan-1-ol] |
| > 10 | 0.0001 to 10 | > 10 | 0.0001 to 10 | OC1(c2cc(Cl)cc3cn[nH]c23)CC(c2ccccc2)C1 (centres unmarked) [Compound P-0201, 1-(5-chloro-1H-indazol-7-yl)-3-phenylcyclobutan-1-ol] |
| > 10 | 10 to 100 | > 10 | 0.0001 to 10 | CC(C)(CN1CCCC1)C(O)c1cc(Cl)cc2cn[nH]c12 (stereo not drawn) [Compound P-0202, 1-(5-chloro-1H-indazol-7-yl)-2,2-dimethyl-3-(pyrrolidin-1-yl)propan-l-ol] |
| 0.0001 to 10 | 0.0001 to 10 | 0.0001 to 10 | 0.0001 to 10 | OC(c1cc(Cl)cc2cn[nH]c12)C(C1CCC1)C1CCC1 (centres unmarked) [Compound P-0203, 1-(5-chloro-1H-indazol-7-yl)-2,2-dicyclobutylethan-1-ol] |
| 0.0001 to 10 | 0.0001 to 10 | 0.0001 to 10 | 0.0001 to 10 | OC(c1cc(Cl)cc2cn[nH]c12)C(C1CC1)C1CC1 (centres unmarked) [Compound P-0204, 1-(5-chloro-1H-indazol-7-yl)-2,2-dicyclopropylethan-1-ol] |
| > 10 | 10 to 100 | 0.0001 to 10 | 10 to 100 | CC(O)(c1cc(Cl)cc2cn[nH]c12)C1CCCC1 (centres unmarked) [Compound P-0205, 1-(5-chloro-1H-indazol-7-yl)-1-cyclopentylethan-1-ol] |
| > 10 | 10 to 100 | 0.0001 to 10 | 10 to 100 | OC1(c2cc(Cl)cc3cn[nH]c23)CCC1 [Compound P-0206, 1-(5-chloro-1H-indazol-7-yl)cyclobutan-1-ol] |
| 0.0001 to 10 | 0.0001 to 10 | 0.0001 to 10 | 10 to 100 | CC1(C(O)c2c(Cl)ccc3cn[nH]c23)CCCCC1 (centres unmarked) [Compound P-0207, (6-chloro-1H-indazol-7-yl)(1-methylcyclohexyl)methanol] |
| 0.0001 to 10 | 0.0001 to 10 | 0.0001 to 10 | 0.0001 to 10 | OC(c1cc(Cl)cc2cn[nH]c12)C12CCC(CC1)CC2 (centres unmarked) [Compound P-0208, bicyclo[2.2.2]octan-1-yl(5-chloro-1H-indazol-7-yl)methanol] |
| 0.0001 to 10 | 0.0001 to 10 | 0.0001 to 10 | 0.0001 to 10 | OC(c1cc(Cl)cc2cn[nH]c12)C12CC(C1)C2 (centres unmarked) [Compound P-0209, bicyclo[1.1.1]pentan-1-yl(5-chloro-1H-indazol-7-yl)methanol] |
| 0.0001 to 10 | 0.0001 to 10 | 0.0001 to 10 | 0.0001 to 10 | OC(CC1CCOCC1)c1cc(Cl)cc2cn[nH]c12 (centres unmarked) [Compound P-0210, 1-(5-chloro-1H-indazol-7-yl)-2-(tetrahydro-2H-pyran-4-yl)ethan-1-ol] |
| 0.0001 to 10 | 0.0001 to 10 | 0.0001 to 10 | 0.0001 to 10 | CC1(C(O)c2cc(Cl)cc3cn[nH]c23)COC1 (centres unmarked) [Compound P-0211, (5-chloro-1H-indazol-7-yl)(3-methyloxetan-3-yl)methanol] |
| 0.0001 to 10 | 0.0001 to 10 | 0.0001 to 10 | 0.0001 to 10 | CC(C)(C)C(O)c1cc(Cl)cc2cn[nH]c12 (centres unmarked) [Compound P-0212, 1-(5-chloro-1H-indazol-7-yl)-2,2-dimethylpropan-1-ol] |
| 0.0001 to 10 | 0.0001 to 10 | 0.0001 to 10 | 0.0001 to 10 | CC(C)(CCC#N)C(O)c1cc(Cl)cc2cn[nH]c12 (centres unmarked) [Compound P-0213, 5-(5-chloro-1H-indazol-7-yl)-5-hydroxy-4,4-dimethylpentanenitrile] |
| 0.0001 to 10 | 0.0001 to 10 | 0.0001 to 10 | 0.0001 to 10 | CC(C)(C)C1CC(O)(c2cc(Cl)cc3cn[nH]c23)C1 (centres unmarked) [Compound P-0214, 3-(tert-butyl)-1-(5-chloro-1H-indazol-7-yl)cyclobutan-1-ol] |
| 0.0001 to 10 | 0.0001 to 10 | 0.0001 to 10 | 0.0001 to 10 | CC(C)(C(O)c1cc(Cl)cc2cn[nH]c12)N1CCOCC1 (centres unmarked) [Compound P-0215, 1-(5-chloro-1H-indazol-7-yl)-2-methyl-2-morpholinopropan-1-ol] |
| > 10 | > 200 | > 10 | 10 to 100 | CC(C)(C(O)c1cc(Cl)cc2cn[nH]c12)N1CCCCC1 (centres unmarked) [Compound P-0216, 1-(5-chloro-1H-indazol-7-yl)-2-methyl-2-(piperidin-1-yl)propan-1-ol] |
